Target: Probable UDP-galactopyranose mutase (Klebsiella pneumoniae, UniProt Q48481)
Assay: Fluorescence Polarization Assay
Protocol: Polarization for the fluorescein-UDP conjugated probe in the presence of inhibitors was measured on a Tecan M1000 microplate reader, exciting with 470 nm light and monitoring emission at 525 nm. Each condition was tested in triplicate in the presence of 220 nM K. pneumoniae UGM and 23.3 nM of the probe.

Chain of Probable UDP-galactopyranose mutase (Q48481 whole entry): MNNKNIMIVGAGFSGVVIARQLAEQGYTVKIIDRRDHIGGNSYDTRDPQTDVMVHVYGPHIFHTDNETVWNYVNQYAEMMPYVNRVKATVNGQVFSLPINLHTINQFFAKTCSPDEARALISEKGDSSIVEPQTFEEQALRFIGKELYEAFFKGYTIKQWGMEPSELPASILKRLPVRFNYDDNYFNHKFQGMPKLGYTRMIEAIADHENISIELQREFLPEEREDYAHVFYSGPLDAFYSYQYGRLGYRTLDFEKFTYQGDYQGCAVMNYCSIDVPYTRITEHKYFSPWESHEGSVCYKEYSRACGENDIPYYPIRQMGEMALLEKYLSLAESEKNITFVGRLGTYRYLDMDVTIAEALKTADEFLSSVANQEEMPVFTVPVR

| Kd [µM] | SMILES |
| --- | --- |
| 43 | O=C(O)CC1Sc2nnc(-c3ccco3)n2N=C1c1ccccc1 (configuration not stated) [2‐[3‐(Furan‐2‐yl)‐6‐phenyl‐7H‐[1,2,4]triazolo[3,4‐b][1,3,4]thiadiazin‐7‐yl]acetate (6)] |
| 6 | C=CCNc1nc(-c2cc(C)n(CCC(=O)O)c2C)cs1 [3‐{2,5‐Dimethyl‐3‐[2‐(prop‐2‐en‐1‐ylamino)‐1,3‐thiazol‐4‐yl]pyrrol‐1‐yl}propanoate (10)] |

From BindingDB's records for doi:10.1021/acschembio.5b00370 (University of Wisconsin-Madison, 2015)
